Measurements from PMC9664485 (European journal of medicinal chemistry, 2022).
Values joined by “and” are separate entries in the source; they are usually repeats but may differ in a detail not shown here. Equal entries are not always repeated.

Target: T1, recombinant human Wip1 (1–420) (Homo sapiens, UniProt O15297)
T1 sequence (O15297 1-420): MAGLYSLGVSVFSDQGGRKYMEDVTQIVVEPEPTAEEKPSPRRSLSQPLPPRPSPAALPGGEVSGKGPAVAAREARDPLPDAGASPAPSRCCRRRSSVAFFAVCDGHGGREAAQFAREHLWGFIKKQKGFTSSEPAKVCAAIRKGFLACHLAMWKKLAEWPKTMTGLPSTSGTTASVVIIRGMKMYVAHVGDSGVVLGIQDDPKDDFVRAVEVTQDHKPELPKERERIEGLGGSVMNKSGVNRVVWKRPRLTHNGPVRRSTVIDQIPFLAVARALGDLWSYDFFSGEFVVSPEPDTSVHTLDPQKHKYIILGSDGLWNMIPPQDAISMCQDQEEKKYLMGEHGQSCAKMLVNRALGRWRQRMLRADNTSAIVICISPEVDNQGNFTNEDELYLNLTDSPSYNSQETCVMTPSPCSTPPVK
Assay: Wip1 phosphatase activity inhibition assay
Type: biochemical

[1] = variable slope logistic fit of Wip1 inhibition curve
[2] = fixed-slope logistic curve, which assumes the Hill coefficient = 1 (footnote a)

SMILES | Hill coefficient [n] [1] | also measured
Nc1ccccc1CC1CCCCC1 [Compound 10, 2-(cyclohexylmethyl)aniline] |  | Wip1 inhibitory activity (in words): did not have significant inhibitory activity
Nc1ccccc1CCC1CCCCC1 [Compound 12, 2-(2-cyclohexylethyl)aniline] |  | Wip1 inhibitory activity (in words): did not have significant inhibitory activity
O=C(O)c1cccc(CNc2ccccc2CC2CCCCC2)c1 [Compound 14, 3-(((2-(cyclohexylmethyl)phenyl)amino)methyl)benzoic acid] | 1.9 ± 0.4 | Wip1 inhibitory activity (in words): modest inhibition
COC(=O)c1ccc(NCc2cccc(C(=O)O)c2)c(CC2CCCCC2)c1 [Compound 15, 3-(((2-(cyclohexylmethyl)-4-(methoxycarbonyl)phenyl)amino)methyl)benzoic acid] | 2.8 ± 0.5 | 
O=C(O)c1cccc(CNc2ccccc2CCC2CCCCC2)c1 [Compound 16, 3-(((2-(2-cyclohexylethyl)phenyl)amino)methyl)benzoic acid] |  | Wip1 inhibitory activity (in words): modest inhibition
COC(=O)c1ccc(NCc2cccc(C(=O)O)c2)c(CCC2CCCCC2)c1 [Compound 17, 3-(((2-(2-cyclohexylethyl)-4-(methoxycarbonyl)phenyl)amino)methyl)benzoic acid] | 4.4 ± 0.4 | 
Nc1ccc(C(=O)Nc2cccc(OP(=O)(O)O)c2)cc1CC1CCCCC1 [Compound 22a, 3-(4-amino-3-(cyclohexylmethyl)benzamido)phenyl dihydrogen phosphate] | 1.2 ± 0.10 | 
CCCCC(CCCC)CNc1ccc(C(=O)Nc2cccc(OP(=O)(O)O)c2)cc1CC1CCCCC1 [Compound 22b, 3-(4-((2-butylhexyl)amino)-3-(cyclohexylmethyl)benzamido)phenyl dihydrogen phosphate] |  | Hill coefficient [n] [2]: 1^a
O=C(Nc1cccc(OP(=O)(O)O)c1)c1ccc(NCCCc2ccccc2)c(CC2CCCCC2)c1 [Compound 22c, 3-(3-(cyclohexylmethyl)-4-((3-phenylpropyl)amino)benzamido)phenyl dihydrogen phosphate] |  | IC50: 165 µM; Hill coefficient [n] [2]: 1^a
COc1ccc(CNc2ccc(C(=O)Nc3cccc(OP(=O)(O)O)c3)cc2CC2CCCCC2)cc1 [Compound 22d, 3-(3-(cyclohexylmethyl)-4-((4-methoxybenzyl)amino)benzamido)phenyl dihydrogen phosphate] | 2.0 ± 0.2 | 
COc1cccc(CNc2ccc(C(=O)Nc3cccc(OP(=O)(O)O)c3)cc2CC2CCCCC2)c1 [Compound 22e, 3-(3-(cyclohexylmethyl)-4-((3-methoxybenzyl)amino)benzamido)phenyl dihydrogen phosphate] | 1.3 ± 0.3 | 
O=C(Nc1cccc(OP(=O)(O)O)c1)c1ccc(NCc2cccc(F)c2)c(CC2CCCCC2)c1 [Compound 22f, 3-(3-(cyclohexylmethyl)-4-((3-fluorobenzyl)amino)benzamido)phenyl dihydrogen phosphate] | 3.4 ± 0.4 | 
O=C(Nc1cccc(OP(=O)(O)O)c1)c1ccc(NCc2ccc(F)cc2)c(CC2CCCCC2)c1 [Compound 22g, 3-(3-(cyclohexylmethyl)-4-((4-fluorobenzyl)amino)benzamido)phenyl dihydrogen phosphate] | 3 and 3.0 ± 0.4 | 
O=C(Nc1cccc(OP(=O)(O)O)c1)c1ccc(NCc2ccc3ccccc3c2)c(CC2CCCCC2)c1 [Compound 22h, 3-(3-(cyclohexylmethyl)-4-((naphthalen-2-ylmethyl)amino)benzamido)phenyl dihydrogen phosphate] |  | Wip1 inhibitory activity (in words): weak activity; Hill coefficient [n] [2]: 1^a
COc1cc(OC)cc(-c2ccc(CNc3ccc(C(=O)Nc4cccc(OP(=O)(O)O)c4)cc3CC3CCCCC3)cc2)c1 [Compound 22j, 3-(3-(cyclohexylmethyl)-4-(((3’,5’-dimethoxy-[1,1’-biphenyl]-4-yl)methyl)amino)benzamido)phenyl dihydrogen phosphate] | 1.8 ± 0.1 | 
O=C(Nc1cccc(OP(=O)(O)O)c1)c1ccc(NCc2ccc(-c3cccc(Cl)c3)cc2)c(CC2CCCCC2)c1 [Compound 22k, 3-(4-(((3’-chloro-[1,1’-biphenyl]-4-yl)methyl)amino)-3-(cyclohexylmethyl)benzamido)phenyl dihydrogen phosphate] | 1.3 ± 0.2 | 
O=C(Nc1cccc(OP(=O)(O)O)c1)c1ccc(NCc2ccc(-c3cccc(F)c3)cc2)c(CC2CCCCC2)c1 [Compound 22l, 3-(3-(cyclohexylmethyl)-4-(((3’-fluoro-[1,1’-biphenyl]-4-yl)methyl)amino)benzamido)phenyl dihydrogen phosphate] | 1.7 ± 0.4 | 
O=C(Nc1cccc(OP(=O)(O)O)c1)c1ccc(NCc2cc3ccccc3o2)c(CC2CCCCC2)c1 [Compound 22m, 3-(4-((benzofuran-2-ylmethyl)amino)-3-(cyclohexylmethyl)benzamido)phenyl dihydrogen phosphate] | 1.5 ± 0.1 | 
O=C(Nc1cccc(OP(=O)(O)O)c1)c1ccc(NCc2cccnc2)c(CC2CCCCC2)c1 [Compound 22n, 3-(3-(cyclohexylmethyl)-4-((pyridin-3-ylmethyl)amino)benzamido)phenyl dihydrogen phosphate] | 1.6 ± 0.2 | fold less active (Wip1 IC50) (compared with 22m): 5 fold
O=C(Nc1cccc(OP(=O)(O)O)c1)c1ccc(NCc2ccc(F)cc2)c(Cc2ccccc2)c1 [Compound 29a, 3-(3-benzyl-4-((4-fluorobenzyl)amino)benzamido)phenyl dihydrogen phosphate] | 1.7 ± 0.1 | fold loss in activity (Wip1 IC50) (compared with 22g): 3 fold
O=C(Nc1cccc(OP(=O)(O)O)c1)c1ccc(NCc2ccc(F)cc2)cc1 [Compound 29b, 3-(4-((4-fluorobenzyl)amino)benzamido)phenyl dihydrogen phosphate] |  | Wip1 inhibitory activity (in words): almost complete loss of inhibitory activity; Hill coefficient [n] [2]: 1^a
O=C(Nc1ccc(OP(=O)(O)O)cc1)c1ccc(NCc2ccc(F)cc2)c(CC2CCCCC2)c1 [Compound 32a, 4-(3-(cyclohexylmethyl)-4-((4-fluorobenzyl)amino)benzamido)phenyl dihydrogen phosphate] | 3.4 ± 0.4 | Wip1 inhibitory activity (in words): comparable inhibitory activity with the parent compound 22g
O=C(Nc1cccc(Cl)c1)c1cccc(CNc2ccc(C(=O)Nc3cccc(O)c3)cc2CCC2CCCCC2)c1 [Compound 38c, 4-((3-((3-chlorophenyl)carbamoyl)benzyl)amino)-3-(2-cyclohexylethyl)-N-(3-hydroxyphenyl)benzamide] |  | Wip1 inhibitory activity (in words): considerable drop in activity; Hill coefficient [n] [2]: 1^a
O=C(Nc1cccc(Cl)c1)c1ccc(CNc2ccc(C(=O)Nc3cccc(OP(=O)(O)O)c3)cc2CC2CCCCC2)cc1 [Compound 40a, 3-(4-((4-((3-chlorophenyl)carbamoyl)benzyl)amino)-3-(cyclohexylmethyl)benzamido)phenyl dihydrogen phosphate] | 1.9 ± 0.2 | 
O=C(Nc1cccc(Cl)c1)c1cccc(CNc2ccc(C(=O)Nc3cccc(OP(=O)(O)O)c3)cc2CCC2CCCCC2)c1 [Compound 40c, 3-(4-((3-((3-chlorophenyl)carbamoyl)benzyl)amino)-3-(2-cyclohexylethyl)benzamido)phenyl dihydrogen phosphate] | 1.0 ± 0.1 | 
O=C(Nc1cccc(Cl)c1)c1cccc(CNc2ccc(C(=O)Nc3cccc(OP(=O)(O)O)c3)cc2C2CC3CCC2C3)c1 (stereo not drawn) [Compound 40d, 3-(3-(bicyclo[2.2.1]heptan-2-yl)-4-((3-((3-chlorophenyl)carbamoyl)benzyl)amino)benzamido)phenyl dihydrogen phosphate] | 2.3 ± 0.4 | 
O=C(Nc1ccc2c(c1)OCO2)c1cccc(CNc2ccc(C(=O)Nc3cccc(OP(=O)(O)O)c3)cc2CC2CCCCC2)c1 [Compound 40e, 3-(4-((3-(benzo[d][1,3]dioxol-5-ylcarbamoyl)benzyl)amino)-3-(cyclohexylmethyl)benzamido)phenyl dihydrogen phosphate] | 2.9 ± 0.1 | 
O=C(Nc1cccc(F)c1)c1cccc(CNc2ccc(C(=O)Nc3cccc(OP(=O)(O)O)c3)cc2CC2CCCCC2)c1 [Compound 40f, 3-(3-(cyclohexylmethyl)-4-((3-((3-fluorophenyl)carbamoyl)benzyl)amino)benzamido)phenyl dihydrogen phosphate] | 3.6 ± 0.2 | 
